Where no end group is shown, it is not given here.
Experiments:
CAC [1] = test: CAC senescence (acidic β-gal activity), cultured CAC; type: cell-based, human; details: FIG. 2A
Method: (§1) Peripheral-blood mononuclear cells (PB-MNC) isolated by Fycoll Histopaque 1077 (Sigma) were resuspended in 20% FBS 199 Medium and plated on fibronectin-coated dishes (Biocoat, Becton Dickinson Labware) as described by Hill et al. (Ref. 19). Human UAG studies were performed on CAC recovered from normal donors and diabetic patients. The purity of sorted cells was assessed by FACS analysis (Ref. 20). For experiments, the isolated CAC were cultured under 5% CO2 at 37° C. for 4 days on 20 μg/ml fibronectin-coated dishes in EGM-2 medium containing 10% FBS, hydrocortisone, human Fibroblast Growth Factor, Vascular Endothelial Growth Factor, Insulin Growth Factor 1, ascorbic acid, human Epidermal Growth Factor, gentamicin and amphotericin-B (Cambrex, Walkersville, Md., USA) alone or in combination with 1 μM UAG and 1.2 mg/ml AGE. In selected experiments, isolated CAC were cultured in EBM-2 medium (Cambrex, Walkersville, Md., USA) supplemented with 10 ng/ml of IL-3. FACS was used to analyze their phenotype (anti-CD45, anti-CD31, anti-CD105, anti-CD14 antibodies were used) (Ref. 22).
CAC Senescence—Senescence was evaluated by acidic β-gal activity on CAC recovered from normal subjects cultured in EGM2 medium for 4 days with UAG or AGE+UAG and saline- or UAG-treated diabetic patients (Ref. 22). […] SA-β-gal-positive cells were counted manually by 3 independent investigators.

CAC [2] = test: CAC mobilization assay in healthy subjects and diabetic patients; type: in vivo, human; details: diabetic patients compared to normal subjects, 6 hours treatment; FIG. 3B
Method: (§2) All the subjects underwent the following testing session: • UAG (3.0 μg/kg/h iv. as infusion for 12 h from 0 to 12 hours); • isotonic saline (infusion from 0 to 12 hours).
(§3) All tests were performed starting at 08.30-09.00 a.m. after overnight fasting, 30 minutes after an indwelling catheter had been placed into a forearm vein by slow infusion of isotonic saline. Blood samples were taken at 0 h, 6 h and 12 h.
Mobilization assay—CAC recovered from healthy subjects and diabetic patients, treated with UAG or saline for 6 h and 12 h, were evaluated. Total number of MNC was counted by 3 independent investigators. The percentage of CAC was calculated by comparing CAC obtained from diabetic patients and healthy donors, treated for 6 h and 12 h with UAG, AG or saline, to CAC recovered at time 0.

CAC [3] = test: Detection of ROS in CAC (DCF-DA assay, FACS); type: cell-based, human
Method: as §1
Detection of ROS—DCF-DA (0.5 μM final concentration) was added to CAC in the indicated culture conditions. At the indicated times, the cells were subjected to FACS analysis and processed as previously described (Ret. 22). H2O2 was used as positive control.

CAC [4] = test: Senescence of CAC recovered from type 2 diabetic patients treated with UAG; parameters: species or system human; details: 12 hours of treatment in vivo, FIG. 2D
Method: as §2, §3
CAC Senescence—Senescence was evaluated by acidic β-gal activity on CAC recovered from normal subjects cultured in EGM2 medium for 4 days with UAG or AGE+UAG and saline- or UAG-treated diabetic patients (Ref. 22). Briefly, CAC were washed in phosphate-buffered saline, fixed for 3 min at room temperature in 2% paraformaldehyde, washed, and incubated for24 h at 37° C. with fresh SA-β-gal stain solution: 1 mg/ml 5-bromo-4-chloro-3-indolyl β-D-galactopyranoside (X-gal), 5 mM/liter potassium ferrocyanide, 5 mM/liter ferricyanide, 150 mM/liter NaCl, 2 mM/liter MgCl2, 0.01% sodium deoxycholate, and 0.02% Nonidet P-40. SA-β-gal-positive cells were counted manually by 3 independent investigators.

CAC membranes = test: Competition binding with [125I-Tyr4]-UAG on CAC membranes; parameters: species or system human; details: 100 nM unlabelled competitor, radioligand 0.25 nM; FIG. 5A
From the text: The specific binding of [^125I-Tyr^4]-UAG (calculated as difference between binding in the absence, control, and in the presence of UAG) represented about 75% of the control value (P<0.001) and was detected either on fresh (0.25 and 0.26 fmol) or frozen-thawed (0.20 and 0.33 fmol) CAC membranes from two different cell preparations.

HIT-T15 β-cells = test: Survival of cytokine-treated HIT-T15 β-cells (MTT); type: cell-based; details: cytokines (IFN-γ/TNF-α/IL-1β), peptides 1 nM to 100 nM
Method: The survival effect of UAG (6-13) (SEQ ID NO: 6), UAG (8-13) (SEQ ID NO: 7), UAG (8-12) (SEQ ID NO: 8), UAG (8-11) (SEQ ID NO: 12), UAG (9-12) (SEQ ID NO: 9) and UAG (9-11) (SEQ ID NO: 10) was assessed in cytokine-treated HIT-T15 β-cells. […] The protective effects of peptides UAG (8-13) (SEQ ID NO: 7) and UAG (8-12) (SEQ ID NO: 8) were found similar to those of UAG (1-14) (SEQ ID NO: 2) and UAG (1-18) (SEQ ID NO: 3). A peptide made of the inverse sequence of UAG (1-14) (SEQ ID NO: 2) and named UAG (14-1) (SEQ ID NO: 11), was used as negative control for these experiments. […] These effects were however lower than those of UAG (6-13) (SEQ ID NO: 6).

inhibition of binding of [125I-Tyr4]-UAG to CAC membranes (CAC membranes): inhibited
Substance: 1-NH2Gly-Ser-Ser-Phe-Leu-Ser-Pro-Glu-His-Gln-Arg-Val-Gln-Gln-Arg-Lys-Glu-Ser-Lys-Lys-Pro-Pro-Ala-Lys-Leu-Gln-Pro-Arg-28 (GSSFLSPEHQRVQQRKESKKPPAKLQPR; ends and bridges not checked; listed as Homo sapiens) [UAG]
number of senescent cells (SA-β-gal activity) (CAC [1]; CAC cultured with UAG alone): reduce the number of senescent cells
number of SA-β-gal positive cells (CAC [1]; UAG added to AGE-cultured CAC): significant reduction in the number of SA-β-gal positive cells
number of recovered CAC (CAC [2]): strong increase in the number of recovered cells
level of ROS production in AGE-cultured cells (CAC [3]; AGE-cultured CAC, FIG. 1C, 1F): reduced
intracellular ROS production in diabetic-recovered cells (CAC [3]; CAC isolated from type 2 diabetic patients, FIG. 1D): reduced intracellular ROS production
baseline level of ROS production (CAC [3]; compared to untreated cells, FIG. 1B, 1E): drastically reduces the baseline level of ROS production
number of senescent cells (CAC [4]): reduced the number of senescent cells
survival effect on cytokine-induced cell death (HIT-T15 β-cells): comparable
